Data reported in ChEMBL document CHEMBL3784920, “Synthesis and Pharmacological Evaluation of Novel Adenine-Hydrogen Sulfide Slow Release Hybrids Designed as Multitarget Cardioprotective Agents” (J Med Chem, 2016).
Active and inactive are the calls of the source. The calls are words filed in the database; no cut-off is given here.

Tests used:
[1] = Induction of H2S release in potassium phosphate buffer at pH 7.4 after 15 mins by methylene-blue assay; format: physicochemical; conditions: pH 7.4, 0.25 h
[2] = test system: Oryctolagus cuniculus; experiment: Toxicity in New Zealand white rabbit assessed as heart weight at 1.79 umol/kg, administered as single bolus dose (reference value: 7.2 +/- 0.3 g); format: organism-based; conditions: in vivo
[3] = test system: Oryctolagus cuniculus; experiment: Toxicity in New Zealand white rabbit myocardial ischemia/reperfusion injury model assessed as mean blood pressure at 1.79 umol/kg, administered as single bolus dose at 180 mins of reperfusion in presence of SPT (reference value: 60 +/- 4 mmHg); format: organism-based; conditions: in vivo, 3 h
[4] = test system: Oryctolagus cuniculus; experiment: Toxicity in New Zealand white rabbit myocardial ischemia/reperfusion injury model assessed as mean blood pressure at 1.79 umol/kg, administered as single bolus dose at 20 mins of sustained ischemia (reference value: 64 +/- 5 mmHg); format: organism-based; conditions: in vivo
[5] = test system: Oryctolagus cuniculus; experiment: Cardioprotective activity in New Zealand white rabbit myocardial ischemia/reperfusion injury model assessed as reduction in infarct size at 1.79 umol/kg, administered as single bolus dose at 20 mins before sustained ischemia by TTC staining in presence of non selective adenosine receptor inhibitor SPT (reference value: 47.9 +/- 0.7 %); format: functional, Myocardium; design: scale not given: the % may be the effect or the level left
[6] = test system: Oryctolagus cuniculus; experiment: Toxicity in New Zealand white rabbit assessed as baseline heart rate at 1.79 umol/kg, administered as single bolus dose (reference value: 269 +/- 10 bpm); format: organism-based; conditions: in vivo
[7] = test system: RLF-6; experiment: Induction of H2S release in RLF-6 cells assessed as cGMP accumulation at 250 uM after 5 mins by enzyme immuno assay; format: functional, cell-based; conditions: Rattus norvegicus
[8] = test system: Oryctolagus cuniculus; experiment: Toxicity in New Zealand white rabbit assessed as baseline heart rate at 1.79 umol/kg, administered as single bolus dose in presence of non selective adenosine receptor inhibitor SPT (reference value: 269 +/- 10 bpm); format: organism-based; conditions: in vivo
[9] = test system: Oryctolagus cuniculus; experiment: Toxicity in New Zealand white rabbit myocardial ischemia/reperfusion injury model assessed as heart rate at 1.79 umol/kg, administered as single bolus dose at 20 mins of sustained ischemia (reference value: 276 +/- 9 bpm); format: organism-based; conditions: in vivo
[10] = test system: Oryctolagus cuniculus; experiment: Toxicity in New Zealand white rabbit assessed as baseline mean blood pressure at 1.79 umol/kg, administered as single bolus dose in presence of SPT (reference value: 74 +/- 5 mmHg); format: organism-based; conditions: in vivo
[11] = Induction of H2S release in potassium phosphate buffer at 100 uM at pH 7.4 by Amperometric method in presence of glutathione; format: physicochemical; conditions: pH 7.4, 100 µM
[12] = Induction of H2S release in ammonium carbonate buffer at 100 uM at pH 7.4 by mass spectrometry; format: physicochemical; conditions: pH 7.4, 100 µM
[13] = test system: Oryctolagus cuniculus; experiment: Toxicity in New Zealand white rabbit assessed as baseline mean blood pressure at 1.79 umol/kg, administered as single bolus dose (reference value: 74 +/- 5 mmHg); format: organism-based; conditions: in vivo
[14] = test system: Oryctolagus cuniculus; experiment: Toxicity in New Zealand white rabbit myocardial ischemia/reperfusion injury model assessed as heart rate at 1.79 umol/kg, administered as single bolus dose at 180 mins of reperfusion in presence of non selective adenosine receptor inhibitor SPT (reference value: 254 +/- 11 bpm); format: organism-based; conditions: in vivo, 3 h
[15] = Induction of H2S release in potassium phosphate buffer at 20 uM at pH 7.4 by Amperometric method; format: physicochemical; conditions: pH 7.4, 20 µM
[16] = test system: Oryctolagus cuniculus; experiment: Toxicity in New Zealand white rabbit assessed as heart weight at 1.79 umol/kg, administered as single bolus dose in presence of non selective adenosine receptor inhibitor SPT (reference value: 7.2 +/- 0.3 g); format: organism-based; conditions: in vivo
[17] = test system: Oryctolagus cuniculus; experiment: Toxicity in New Zealand white rabbit myocardial ischemia/reperfusion injury model assessed as heart rate at 1.79 umol/kg, administered as single bolus dose at 180 mins of reperfusion (reference value: 254 +/- 11 bpm); format: organism-based; conditions: in vivo, 3 h
[18] = test system: Oryctolagus cuniculus; experiment: Cardioprotective activity in New Zealand white rabbit myocardial ischemia/reperfusion injury model assessed as reduction in infarct size at 1.79 umol/kg, administered as single bolus dose at 20th min of sustained ischemia by TTC staining (reference value: 47.9 +/- 0.7 %); format: functional, Myocardium; design: scale not given: the % may be the effect or the level left
[19] = Induction of H2S release in potassium phosphate buffer at 100 uM at pH 7.4 by Amperometric method; format: physicochemical; conditions: pH 7.4, 100 µM
[20] = test system: Oryctolagus cuniculus; experiment: Toxicity in New Zealand white rabbit myocardial ischemia/reperfusion injury model assessed as mean blood pressure at 1.79 umol/kg, administered as single bolus dose at 20 mins of sustained ischemia in presence of non selective adenosine receptor inhibitor SPT (reference value: 64 +/- 5 mmHg); format: organism-based; conditions: in vivo, iv
[21] = test system: Oryctolagus cuniculus; experiment: Increase in PLN phosphorylation at Ser16/Thr17 in tissue from ischemic area of myocardium in New Zealand white rabbit myocardial ischemia/reperfusion injury model at 1.79 umol/kg administered as single bolus dose at 10th min of reperfusion by Western blot analysis relative to control; format: functional, organism-based
[22] = Induction of H2S release in ammonium carbonate buffer at 100 uM at pH 7.4 by mass spectrometry in presence of glutathione; format: physicochemical; conditions: pH 7.4, 100 µM
[23] = test system: Oryctolagus cuniculus; experiment: Toxicity in New Zealand white rabbit myocardial ischemia/reperfusion injury model assessed as heart rate at 1.79 umol/kg, administered as single bolus dose at 20 mins of sustained ischemia in presence of non selective adenosine receptor inhibitor SPT (reference value: 276 +/- 9 bpm); format: organism-based; conditions: in vivo
[24] = test system: Oryctolagus cuniculus; experiment: Toxicity in New Zealand white rabbit myocardial ischemia/reperfusion injury model assessed as mean blood pressure at 1.79 umol/kg, administered as single bolus dose at 180 mins of reperfusion (reference value: 60 +/- 4 mmHg); format: organism-based; conditions: in vivo, iv, 3 h
[25] = test system: Oryctolagus cuniculus; experiment: Increase in VASP phosphorylation at Ser239 in tissue from ischemic area of myocardium in New Zealand white rabbit myocardial ischemia/reperfusion injury model at 1.79 umol/kg administered as single bolus dose at 10th min of reperfusion by Western blot analysis; format: functional, organism-based

CC1(C)O[C@@H]2[C@H](O1)[C@@H](COc1ccc(-c3cc(=S)ss3)cc1)O[C@H]2n1cnc2c(N)ncnc21
Activity [1]: Dose-dependent effect

Nc1ncnc2c1ncn2CCCCOc1ccc(-c2cc(=S)ss2)cc1
Activity [1]: Dose-dependent effect

Nc1ncnc2c1ncn2[C@@H]1O[C@H](COc2ccc(-c3cc(=S)ss3)cc2)[C@@H](O)[C@H]1O
Activity [1]: Dose-dependent effect

NC(=S)c1ccc(OC[C@H]2O[C@@H](n3cnc4c(N)ncnc43)[C@H](O)[C@@H]2O)cc1
Activity [2]: 7.6 g | Activity [3]: 77 mmHg | Activity [4]: 83 mmHg | Activity [5]: 18.3% | Activity [6]: 258 bpm | Activity [7]: Active | Activity [8]: 262 bpm | Activity [9]: 256 bpm | Activity [10]: 86 mmHg | Activity [11]: Not Active | Activity [1]: Dose-dependent effect | Activity [12]: 0.8 µM/min | Activity [13]: 82 mmHg | Activity [14]: 260 bpm | Activity [15]: Not Active | Activity [16]: 7.2 g | Activity [17]: 256 bpm | Activity [18]: 20.1% | Activity [19]: Active | Activity [20]: 71 mmHg | Activity [21]: Active | Activity [22]: Not Active | Activity [23]: 260 bpm | Activity [24]: 76 mmHg | Activity [25]: Active

NC(=S)c1ccc(O)cc1
Activity [7]: Active | Activity [18]: 24.9%
